Experimental data reported in US12220398B2, “Tumor therapeutic agent” (Eisai R&D Management Co., Ltd., priority 2015, dated 2025).

Assays:
Type in all cases: in vivo
[1] = system: human osteosarcoma cell line (HOS); test: Tumor growth inhibitory activity against human osteosarcoma cell line (HOS) subcutaneous transplantation models; settings: HOS s.c. xenograft in NOD SCID mice, lenvatinib mesylate 3 mg/kg p.o. Day 1-7, ifosfamide 250 mg/kg i.p. Day 1, etoposide 8 mg/kg i.p. Day 2-4, control group 468.6
Experimental: Tumor growth inhibitory activity of the combined use of lenvatinib, ifosfamide, and etoposide against human osteosarcoma cell line (HOS) subcutaneous transplantation models
Using 6 NOD SOD mice (NOD.CB17-Prkdc^scid/J, female mice, Charles River Laboratories Japan, Inc.) in each group, antitumor effects were evaluated when lenvatinib alone, a combination of two agents, i.e., ifosfamide and etoposide, or a combination of three agents, i.e., lenvatinib, ifosfamide, and etoposide, was administered. Cells of osteosarcoma cell line HOS (Human Science Research Resources Bank, IFO50106) derived from human were suspended at a concentration of 1×10^8 cells/mL, and 0.1 mL of the suspension was subcutaneously transplanted to the right of each mouse.
The longest diameter and short axis of the tumor were measured with an electronic digital caliper (Digimatic (tread mark) Caliper, Mitutoyo Corporation) 18 days after transplantation. The mice were divided into groups so that the average value of the tumor volume of each group was almost equal (Day 1). The tumor volume was calculated according to the following equation: Tumor volume=longest diameter(mm)×short axis(mm)×short axis(mm)/2
Lenvatinib mesylate was dissolved in purified water to a concentration of 0.3 mg/mL. […]
(§1) The tumor volume of each mouse was measured 8 days (Day 8) after the start of administration.

[2] = system: human osteosarcoma cell line (G-292 clone A141B1); test: Tumor growth inhibitory activity against human osteosarcoma cell line (G-292 clone A141B1) subcutaneous transplantation models; settings: G-292 clone A141B1 s.c. xenograft in NOD SCID mice, lenvatinib mesylate 3 mg/kg p.o. Day 1-7, ifosfamide 250 mg/kg i.p. Day 1, etoposide 8 mg/kg i.p. Day 2-4, control group 362.5
Experimental: Using 6 NOD SCID mice (NOD.CB17-Prkdc^scid/J, female mice, Charles River Laboratories Japan, Inc.) in each group, antitumor effects were evaluated when lenvatinib alone, a combination of two agents, i.e., ifosfamide and etoposide, or a combination of three agents, i.e., lenvatinib, ifosfamide, and etoposide, was administered. Cells of osteosarcoma cell line G-292 clone A141B1 (JCRB Cell Bank, IFO50107) derived from human were suspended at a concentration of 1×10^8 cells/mL, and 0.1 mL of the suspension was subcutaneously transplanted to the right flank of each mouse.
The longest diameter and short axis of the tumor were measured with an electronic digital caliper (Digimatic (tread mark) Caliper, Mitutoyo Corporation) 29 days after transplantation. The mice were divided into groups so that the average value of the tumor volume of each group was almost equal (Day 1). The tumor volume was calculated according to the following equation: Tumor volume=longest diameter(mm)×short axis(mm)×short axis(mm)/2
Lenvatinib mesylate was dissolved in purified water to a concentration of 0.3 mg/mL. lfosfamide (Sigma Aldrich) was dissolved in a physiological saline solution to a concentration of 25 mg/mL. […]
as §1

[3] = system: human osteosarcoma cell line (143B); test: Tumor growth inhibitory activity against human osteosarcoma cell line (143B) subcutaneous transplantation models; settings: 143B s.c. xenograft in NOD SCID mice, lenvatinib mesylate 3 mg/kg p.o. Day 1-7, ifosfamide 250 mg/kg i.p. Day 1, etoposide 8 mg/kg i.p. Day 2-4, control group 785.4
Experimental: Using 6 NOD SCID mice (NOD.CB17-Prkdc^scid/J, female mice, Charles River Laboratories Japan, Inc.) in each group, antitumor effects were evaluated when lenvatinib alone, a combination of two agents, i.e., ifosfamide and etoposide, or a combination of three agents, i.e., lenvatinib, ifosfamide, and etoposide, was administered. Cells of osteosarcoma cell line 143B (ATCC CRL-8303) derived from human were suspended at a concentration of 1×10^7 cells/mL, and 0.1 mL of the suspension was subcutaneously transplanted to the right flank of each mouse.
The longest diameter and short axis of the tumor were measured with an electronic digital caliper (Digimatic (tread mark) Caliper, Mitutoyo Corporation) 9 days after transplantation. The mice were divided into groups so that the average value of the tumor volume of each group was almost equal (Day 1). The tumor volume was calculated according to the following equation: Tumor volume=longest diameter(mm)×short axis(mm)×short axis(mm)/2
Lenvatinib mesylate was dissolved in purified water to a concentration of 0.3 mg/mL. Ifosfamide (Sigma Aldrich) was dissolved in a physiological saline solution to a concentration of 25 mg/mL. […]
as §1

COc1cc2nccc(Oc3ccc(NC(=O)NC4CC4)c(Cl)c3)c2cc1C(N)=O [Lenvatinib, 4-(3-chloro-4-(cyclopropylaminocarbonyl)aminophenoxy)-7-methoxy-6-quinolinecarboxamide]
Average tumor volume (Day 8) [1]: 352.2 mm^3
Average tumor volume (Day 8) [2]: 267.9 mm^3
Average tumor volume (Day 8) [3]: 438.6 mm^3
